In patent US20230256036A1, “SERPIN PRODUCTION” (SOCIETE DES PRODUITS NESTLE S.A., priority 2020, published 2023):

Tests used:
[1] = test system: B. longum strain CNCM I-2618 (NCC 2705); assay: Growth of B. longum NCC 2705 in Biolector on MRSc base without sugar plus HMO; assay type: cell-based, Bifidobacterium longum subsp longum; details: HMO 0.5 wt % in MRSc base without sugar, anaerobic, 37° C., 16 h
Experimental: (§1) B. longum strain CNCM I-2618 (NCC 2705) was grown in Biolector (growth conditions—anaerobic, 37° C.) in MRS+5 mM L-cysteine (MRSc) base without sugar, to which different commercially available Human Milk Oligosaccharides (HMOs) were added at a concentration of 0.5 wt %.
(§2) 48-well microtiter plate with pH sensor and dissolved oxygen (DO) sensor were used to culture the strains in Biolector (m2p-labs Aachen, Germany). It was continuously shaken to prevent bacteria aggregation for 16 h. Cultures were harvested by centrifugation and supernatant was removed. Pellet was resuspended in PBS supplemented with halt protease inhibitor (Sigma) and lysed using glassbeads. Lysate containing both soluble and insoluble material was then collected. Total protein content was measured using Pierce BCA kit (Thermofisher) and serpin protein concentration was determined using ELISA.

[2] = test system: serpin protein in B. longum NCC 2705; assay: Serpin protein level by ELISA in B. longum NCC 2705 grown on HMOs; assay type: cell-based, Bifidobacterium longum subsp longum; details: HMO 0.5 wt %, 16 h, FIG. 1
Experimental: as §1, §2

[3] = test system: serpin protein in B. longum subsp. longum strains; assay: Serpin protein level by ELISA in B. longum subsp. longum strains grown on glucose or LNT; assay type: cell-based, Bifidobacterium longum subsp longum; details: 0.5% LNT vs 0.5% glucose, 16 h, all tested strains, FIG. 2
Experimental: 48-well microtiter plate with pH sensor and dissolved oxygen (DO) sensor were used to culture the strains in Biolector [MUT]-labs Aachen, Germany). It was continuously shaken to prevent bacteria aggregation for 16 h. Cultures were harvested by centrifugation and supernatant was removed. Pellet was resuspended in PBS supplemented with halt protease inhibitor (Sigma) and lysed using glassbeads. Lysate containing both soluble and insoluble material was then collected. Total protein content was measured using Pierce BCA kit (Thermofisher) and serpin protein concentration was determined using ELISA. […] All strains were cultured in Biolector (according to example 1) in a MRSc base without sugar, to which 0.5% glucose or 0.5% of LNT was added. Cultures were grown for 16 h and harvested. Obtained pellets were further analyzed for total and serpin protein content (see example 1).

[4] = test system: B. longum subsp. longum strains; assay: Growth of B. longum subsp. longum strains on LNT as sole carbohydrate source; assay type: cell-based, Bifidobacterium longum subsp longum; details: 0.5% LNT in MRSc base without sugar, 16 h, all tested B. longum subsp. longum strains
Experimental: as §1, §2
The serpin encoding gene and its surrounding is highly conserved within the B. longum subsp. longum species. Strains of B. longum subsp. longum were selected to represent the entire span of the genetic phylogenetic tree (Table 2). All strains were cultured in Biolector (according to example 1) in a MRSc base without sugar, to which 0.5% glucose or 0.5% of LNT was added. Cultures were grown for 16 h and harvested. Obtained pellets were further analyzed for total and serpin protein content (see example 1).

[5] = test system: serpin in Bifidobacterium longum subsp longum; assay: Serpin induction by LNT in culture medium containing glucose; assay type: cell-based; details: only when the glucose is present at levels allowing its depletion during fermentation
Text: LNT may be added to a conventional culture medium comprising up to 8 wt %, preferably up to 6 wt %, for example up to 4 wt %, of another sugar suitable to sustain B. longum growth, such as, but not limited to, glucose. […] Preferably the culture medium at the end of the fermentation contains less than 0.4 wt % glucose, such as from 0 wt % to 0.3 wt % glucose, for example from 0.02 wt % to 0.4 wt %, or from about 0.05 wt % to about 0.3 wt %. Conventional culture mediums suitable for growth of B. longum are well known to the person skilled in the art.

CC(=O)N[C@H]1[C@H](O[C@H]2[C@@H](O)[C@@H](CO)O[C@@H](O[C@H]3[C@H](O)[C@@H](O)C(O)O[C@@H]3CO)[C@@H]2O)O[C@H](CO)[C@@H](O)[C@@H]1O[C@@H]1O[C@H](CO)[C@H](O)[C@H](O)[C@H]1O (some centres unmarked) [LNT, Lacto-N-tetraose]
support of growth of B. longum NCC 2705 [1]: the only one supporting the growth
levels of serpin protein in B. longum NCC 2705 [2]: significantly increase
serpin protein levels in B. longum subsp. longum strains [3]: increased
growth on LNT as sole carbohydrate source [4]: able to grow
induction of serpin production when glucose is present [5]: can induce production of serpin
